Tested on: 3T3-L1 adipocytes
Experiment: Glucose uptake in 3T3-L1 adipocytes (3H-labelled 2-deoxyglucose)
Assay type: cell-based
Settings: for Glucose uptake, Mean, Compound + Insulin Group (Control Group = 1.000): with insulin, relative to control without insulin; for fold induction at 10 µM: Mus musculus, 3T3-L1, 2 h incubation, read-out: Glucose uptake, Mean, Compound Group (Control Group = 1.000)
Description: The effect of the compounds on baseline or insulin-stimulated glucose uptake was evaluated, using the model of glucose uptake in 3T3-L1 adipocytes.
Adipose tissue is the target of glucose metabolism in vivo. The sensitivity for insulin and availability of glucose in adipose tissues are tightly associated with the insulin resistance. The transportation of glucose into adipocytes is a rate-limiting step for the glucose metabolism, and also an important indicator for evaluating the sensitivity for insulin in adipose tissue. 3T3-L1 is a kind of pre-adipocyte, and can become adipocyte after differentiated completely. Therefore, 3T3-L1 is a desirable model for the glucose transport.
Pre-adipocyte, 3T3-L1 was induced to differentiate under certain conditions. After 3T3-L1 differentiated into adipocytes, the compounds of interest with different concentrations and DMSO (used as control) can be added and incubated with the adipocytes for different periods, then the glucose uptake could be determined. For evaluating the ability for a compound to stimulate glucose uptake, the baseline and insulin-induced glucose uptake were determined, and the increase in baseline and insulin-induced glucose uptake upon treatment of the compounds as compared with control group (with 0.1% DMSO) is calculated, based on the ^3H-labelled 2-deoxyglucose inside the cells.
3T3-L1 cells purchased from Karolinska Institute (Sweden) were cultured in DMEM medium containing 10% fetal calf serum at 37° C., under 5% CO2. The cells were passaged every 3-4 days. The cells were inoculated into 12-well plate. Upon confluence, culture medium containing 0.5 mM 3-isobutyl-1-methylxanthine, 0.25 μM dexamethasone and 5 μg/ml insulin was added and cultured for 3 days. Then, the culture medium was replaced by a medium containing 5 μg/ml insulin and further cultured for 3 days. The insulin was removed, and the cells had differentiated completely into mature adipocytes after 2 days which could be used to determine the glucose uptake.
23 compounds chosen by the inventors were added into the culture medium of adipocytes in a dose of 10 μM. After incubation for 2 h, the effect of the compounds on glucose uptake in 3T3-L1 cells was observed. Culture medium without compounds was used as negative control. The control group only supplemented with insulin and the experiment group supplemented with compounds plus insulin were also employed to observe the effect of the compounds on glucose uptake.

[1] = baseline (without insulin), relative to control

## O=C1Oc2ccccc2Oc2ccccc21 [AA0, Dibenzo[b,e][1,4]dioxepin-11-one]
10 μM, 2 h incubation
  Glucose uptake, Mean, Compound + Insulin Group (Control Group = 1.000): 2.130
[1]
  fold induction at 10 µM: 1.12

## CNC(=O)c1cc(OC)c(C)c2c1Oc1c(C=O)c(O)cc(C)c1C(=O)O2 [AB2, 4-Formyl-3-hydroxy-8-methoxy-1,9-dimethyl-11-oxo-11H-dibenzo[b,e][1,4]dioxepine-6-carboxylic acid methylamide]
10 μM, 2 h incubation
  Glucose uptake, Mean, Compound + Insulin Group (Control Group = 1.000): 1.639
[1]
  fold induction at 10 µM: 1.18

## CCNC(=O)c1cc(OC)c(C)c2c1Oc1c(C=O)c(O)cc(C)c1C(=O)O2 [AB4, 4-Formyl-3-hydroxy-8-methoxy-1,9-dimethyl-11-oxo-11H-dibenzo[b,e][1,4]dioxepine-6-carboxylic acid ethylamide]
10 μM, 2 h incubation
  Glucose uptake, Mean, Compound + Insulin Group (Control Group = 1.000): 1.837
[1]
  fold induction at 10 µM: 1.11

## COc1cc(C(=O)Nc2ccc(S(N)(=O)=O)cc2)c2c(c1C)OC(=O)c1c(C)cc(O)c(C=Nc3ccc(S(N)(=O)=O)cc3)c1O2 [AB9, 3-Hydroxy-8-methoxy-1,9-dimethyl-11-oxo-4-[(4-sulfamoylphenyl)-iminomethyl]-11H-dibenzo[b,e][1,4]dioxepine-6-[carboxy-(4-sulfamoyl)phenylamide]]
10 μM, 2 h incubation, baseline (without insulin), relative to control
  Glucose uptake, Mean, Compound Group (Control Group = 1.000): 1.150
10 μM, 2 h incubation
  Glucose uptake, Mean, Compound + Insulin Group (Control Group = 1.000): 1.555

## COc1cc(C(=O)O)c2c(c1C)OC(=O)c1c(C)cc(O)c(CNC(C)(C)C)c1O2 [Compound D3, 4-(tert-Butylamino-methyl)-3-hydroxy-8-methoxy-1,9-dimethyl-11-oxo-11H-dibenzo[b,e][1,4]dioxepine-6-carboxylic acid]
10 μM, 2 h incubation
  Glucose uptake, Mean, Compound + Insulin Group (Control Group = 1.000): 3.001
[1]
  fold induction at 10 µM: 1.12

## COc1cc(C(=O)O)c2c(c1C)OC(=O)c1c(C)cc(O)c(CN3CCN(Cc4ccccc4)CC3)c1O2 [Compound D4, 4-(4-Benzyl-piperazin-1-ylmethyl)-3-hydroxy-8-methoxy-1,9-dimethyl-11-oxo-11H-dibenzo[b,e][1,4]dioxepine-6-carboxylic acid]
10 μM, 2 h incubation
  Glucose uptake, Mean, Compound + Insulin Group (Control Group = 1.000): 3.717
[1]
  fold induction at 10 µM: 1.19
